US4304864A, “Long-chain acyl-coenzyme-A synthetase” (Mitsubishi Chemical Industries, Limited, priority 1978, dated 1981)
“Also recorded” adds a separate entry of the source.

Assays:
acyl-CoA synthetase I [1] = test: Specificity for acyl acceptors (Vmax and apparent Km); type: biochemical, Candida lipolytica; conditions: for utilization as acyl acceptor: at conc. up to 5 mM; for Km / Vmax: acyl acceptor; for Vmax: CoA designated as 100%
Procedure: (§1) The sssay of enzyme activity was carried out by the Banis and Tove method. (See Biochemica et Biophysica Acta, Vol. 348, pages 210-220 (1974)). According to this method, the reaction solution contained 20 μmol of Tris-HCl buffer (pH 7.5), 3 μmol of ATP, 2 μmol of MgCl2, 1.0 μmol of dithiothreitol, 0.2 μmol of [U-^14 C] potassium palmitate (0.2 mCi/mmol), 0.32 μmol of surfactant T, 0.2 μmol of CoA and an aliquot of the enzyme solution in a total volume of 0.2 ml. After a 5 minute preincubation, either the CoA or the enzyme solution which had been kept from incorporating in the reaction solution was added to initiate the reaction (at 25° C.). At the end of a 10 minute reaction period, 2.5 ml of isopropanol-n-heptane-1 M sulfuric acid (40:10:1) was added to stop the reaction. The solution was then extracted with heptane to remove any unreacted free fatty acid. After the aqueous layer was washed twice each with 2 ml of heptane containing 8 mg of palmitic acid, the radioactivity of the aqueous layer was measured.
(§2) The standard reaction solution contained 100 μmol of Tris-HCl buffer (pH 7.4), 5 μmol of dithiothreitol, 1.6 μmol of surfactant T, 7.5 μmol of ATP, 10 μmol of MgCl2, 0.25 μmol of potassium oleate, 1 μmol of CoA, 0.2 μmol of potassium phosphoenolpyruvate, 0.15 μmol of NADH, 20 μg of myokinase, 30 μg of pyruvate kinase, 30 μg of lactate dehydrogenase and a certain amount of acyl-CoA synthetase per ml of the solution. A reaction solution containing all the above components except CoA was preincubated at 25° C. for one minute. The reaction was then initiated by the addition of CoA, and the rate of decrease in optical density at 340 nm which was attributed to decrease in amount of NADH was determined.
The Vmax values and the apparent Km values were as follows: […]

acyl-CoA synthetase [2] = test: Substrate specificity of acyl-CoA synthetase (fatty acids); type: biochemical, Candida lipolytica; conditions: for Activity (μmol acyl-CoA/min.): fatty acid concentration 0.25 mM
Procedure: as §1, §2

acyl-CoA synthetase I [3] = test: Specificity for nucleoside-5'-triphosphate; type: biochemical, Candida lipolytica; conditions: for effectiveness as nucleoside-5'-triphosphate: 7.5 mM and 15 mM
Procedure: as §2
(ii) Specificity for nucleoside-5'-triphosphate: Only ATP and αATP were effective. At concentrations of 7.5 mM and 15 mM, the activities measured with αATP were 78% and 61%, respectively, of those measured with ATP.

acyl-CoA synthetase [4] = test: Substrate specificity of acyl-CoA synthetase (fatty acids); type: biochemical, Candida lipolytica; conditions: fatty acid concentration 0.125 mM
acyl-CoA synthetase [5] = test: Activator and inhibitor of the enzyme; type: biochemical, Candida lipolytica
[6] = most purified form, prior art; cited from earlier work

O[C@H](CS)[C@H](O)CS (racemic) [Dithiothreitol]
utilization as acyl acceptor (acyl-CoA synthetase I [1]): Not utilized

CC(C)(COP(=O)(O)OP(=O)(O)OC[C@H]1O[C@@H](n2cnc3c2ncn2ccnc32)[C@H](O)[C@@H]1OP(=O)(O)O)[C@@H](O)C(=O)NCCC(=O)NCCS [1:^6 N-Etheno-CoA]
Km (acyl-CoA synthetase I [1]): 500 µM | Vmax (acyl-CoA synthetase I [1]): 40%

CC(C)(COP(=O)(O)O)[C@@H](O)C(=O)NCCC(=O)NCCS [4'-Phosphopantetheine]
Km (acyl-CoA synthetase I [1]): 3300 µM | Vmax (acyl-CoA synthetase I [1]): 63%

O=C(O)CCCCCCCCCCCCCCCO [16-Hydroxypalmitic acid]
effectiveness as substrate of the enzyme (acyl-CoA synthetase [2]): essentially ineffective | Activity (μmol acyl-CoA/min.) (acyl-CoA synthetase [2]): 1.5 μmol acyl-CoA/min.

Nc1ncnc2c1ncn2[C@@H]1O[C@H](COP(=O)(O)OP(=O)(O)OP(=O)(O)O)[C@@H](O)[C@H]1O [ATP]
effectiveness as nucleoside-5'-triphosphate (acyl-CoA synthetase I [3]): effective

CCCCCCCCCCCCCCCCCCCC(=O)O [Arachidic acid]
Activity (μmol acyl-CoA/min.) (acyl-CoA synthetase [2]): 0.6 μmol acyl-CoA/min.

CCCCC/C=C\C/C=C\C/C=C\C/C=C\CCCC(=O)O [Arachidonic acid]
Activity (μmol acyl-CoA/min.) (acyl-CoA synthetase [4]): 1.3 μmol acyl-CoA/min.

Nc1ccn([C@@H]2O[C@H](COP(=O)(O)OP(=O)(O)OP(=O)(O)O)[C@@H](O)[C@H]2O)c(=O)n1 [CTP]
effectiveness as nucleoside-5'-triphosphate (acyl-CoA synthetase I [3]): essentially ineffective

CC(C)(COP(=O)(O)OP(=O)(O)OC[C@H]1O[C@@H](n2cnc3c(N)ncnc32)[C@H](O)[C@@H]1OP(=O)(O)O)[C@@H](O)C(=O)NCCC(=O)NCCS [CoA]
Km (acyl-CoA synthetase I [1]): 42 µM | Vmax (acyl-CoA synthetase I [1]): 100%

[Cu+2] [Cu^++]
activation or inhibition of the enzyme (acyl-CoA synthetase [5]): inhibitor | inhibition of the enzyme action (acyl-CoA synthetase [5]; concentration of 15 mM): completely inhibits

CC(C)(COP(=O)(O)OP(=O)(O)OC[C@H]1O[C@@H](n2cnc3c(N)ncnc32)[C@H](O)[C@@H]1O)[C@@H](O)C(=O)NCCC(=O)NCCS [Dephospho-CoA]
Km (acyl-CoA synthetase I [1]): 110 µM | Vmax (acyl-CoA synthetase I [1]): 70%

O=C(O)CN(CCN(CC(=O)O)CC(=O)O)CC(=O)O [EDTA]
activation or inhibition of the enzyme (acyl-CoA synthetase [5]): inhibitor; also recorded: inhibits

Nc1nc2c(ncn2[C@@H]2O[C@H](COP(=O)(O)OP(=O)(O)OP(=O)(O)O)[C@@H](O)[C@H]2O)c(=O)[nH]1 [GTP]
effectiveness as nucleoside-5'-triphosphate (acyl-CoA synthetase I [3]): essentially ineffective

N[C@@H](CCC(=O)N[C@@H](CS)C(=O)NCC(=O)O)C(=O)O [Glutathione]
utilization as acyl acceptor (acyl-CoA synthetase I [1]): Not utilized

CCCCCCCCCCCCCCCCC(=O)O [Heptadecanoic acid]
Activity (μmol acyl-CoA/min.) (acyl-CoA synthetase [4]): 22.3 μmol acyl-CoA/min.

O=C(O)CCCCCCCCCCCCCCC(=O)O [Hexadecanedioic acid]
effectiveness as substrate of the enzyme (acyl-CoA synthetase [2]): essentially ineffective | Activity (μmol acyl-CoA/min.) (acyl-CoA synthetase [2]): 0.6 μmol acyl-CoA/min.

N[C@@H](CS)C(=O)O [L-Cysteine]
utilization as acyl acceptor (acyl-CoA synthetase I [1]): Not utilized

CCCCCCCCCCCC(=O)O [Lauric acid]
Activity (μmol acyl-CoA/min.) (acyl-CoA synthetase [2]): 1.0 μmol acyl-CoA/min.

CCCCC/C=C\C/C=C\CCCCCCCC(=O)O [Linoleic acid]
Activity (μmol acyl-CoA/min.) (acyl-CoA synthetase [2]): 19.7 μmol acyl-CoA/min.

CC/C=C\C/C=C\C/C=C\CCCCCCCC(=O)O [Linolenic acid]
Activity (μmol acyl-CoA/min.) (acyl-CoA synthetase [2]): 22.0 μmol acyl-CoA/min.

[Mg+2] [Mg^++]
activation or inhibition of the enzyme (acyl-CoA synthetase [5]): activator; also recorded: activated

CCCCCCCCCCCCCC(=O)O [Myristic acid]
Activity (μmol acyl-CoA/min.) (acyl-CoA synthetase [2]): 20.8 μmol acyl-CoA/min.

CC(=O)NCCS [N-Acetylcysteamine]
utilization as acyl acceptor (acyl-CoA synthetase I [1]): Not utilized

CCCCCCCCCCCCCCCCCCC(=O)O [Nonadecanoic acid]
Activity (μmol acyl-CoA/min.) (acyl-CoA synthetase [2]): 1.7 μmol acyl-CoA/min.

CCCCCCCC/C=C\CCCCCCCC(=O)O [Oleic acid]
Activity (μmol acyl-CoA/min.) (acyl-CoA synthetase [2]): 23.8 μmol acyl-CoA/min.

CCCCCCCCCCCCCCCC(=O)O [Palmitic acid]
Activity (μmol acyl-CoA/min.) (acyl-CoA synthetase [2]): 20.4 μmol acyl-CoA/min.

CCCCCC/C=C\CCCCCCCC(=O)O [Palmitoleic acid]
Activity (μmol acyl-CoA/min.) (acyl-CoA synthetase [4]): 19.8 μmol acyl-CoA/min.

CC(C)(CO)[C@@H](O)C(=O)NCCC(=O)NCCS [Pantetheine]
Km (acyl-CoA synthetase I [1]): 2500 µM | Vmax (acyl-CoA synthetase I [1]): 57%

CCCCCCCCCCCCCCC(=O)O [Pentadecanoic acid]
Activity (μmol acyl-CoA/min.) (acyl-CoA synthetase [2]): 18.0 μmol acyl-CoA/min.

CCCCCCCCCCCCC(=O)O [Tridecanoic acid]
Activity (μmol acyl-CoA/min.) (acyl-CoA synthetase [4]): 1.3 μmol acyl-CoA/min.

O=c1ccn([C@@H]2O[C@H](COP(=O)(O)OP(=O)(O)OP(=O)(O)O)[C@@H](O)[C@H]2O)c(=O)[nH]1 [UTP]
effectiveness as nucleoside-5'-triphosphate (acyl-CoA synthetase I [3]): essentially ineffective

Nc1ncnc2c1ncn2[C@@H]1O[C@H](COP(=O)(O)OP(=O)(O)CP(=O)(O)O)[C@@H](O)[C@H]1O [adenylyl (β,γ-methylene)diphosphonate]
effectiveness as nucleoside-5'-triphosphate (acyl-CoA synthetase I [3]): essentially ineffective

Nc1ncnc2c1ncn2[C@@H]1O[C@H](COP(=O)(O)OP(=O)(O)NP(=O)(O)O)[C@@H](O)[C@H]1O [adenylyl imidodiphosphonate]
effectiveness as nucleoside-5'-triphosphate (acyl-CoA synthetase I [3]): essentially ineffective

αATP
effectiveness as nucleoside-5'-triphosphate (acyl-CoA synthetase I [3]): effective | activity relative to that measured with ATP (acyl-CoA synthetase I [3]; nucleotide 7.5 mM): 78% | activity relative to that measured with ATP (acyl-CoA synthetase I [3]; nucleotide 15 mM): 61%

αTTP
effectiveness as nucleoside-5'-triphosphate (acyl-CoA synthetase I [3]): essentially ineffective

B1: acyl-CoA synthetase from E. coli: prior art enzyme purified from Escherichia coli by D. Samuel et al (protein, UniProt P69451 1-561, looked up)
Long-chain-fatty-acid--CoA …: MKKVWLNRYPADVPTEINPDRYQSLVDMFEQSVARYADQPAFVNMGEVMTFRKLEERSRAFAAYLQQGLGLKKGDRVALMMPNLLQYPVALFGILRAGMIVVNVNPLYTPRELEHQLNDSGASAIVIVSNFAHTLEKVVDKTAVQHVILTRMGDQLSTAKGTVVNFVVKYIKRLVPKYHLPDAISFRSALHNGYRMQYVKPELVPEDLAFLQYTGGTTGVAKGAMLTHRNMLANLEQVNATYGPLLHPGKELVVTALPLYHIFALTINCLLFIELGGQNLLITNPRDIPGLVKELAKYPFTAITGVNTLFNALLNNKEFQQLDFSSLHLSAGGGMPVQQVVAERWVKLTGQYLLEGYGLTECAPLVSVNPYDIDYHSGSIGLPVPSTEAKLVDDDDNEVPPGQPGELCVKGPQVMLGYWQRPDATDEIIKNGWLHTGDIAVMDEEGFLRIVDRKKDMILVSGFNVYPNEIEDVVMQHPGVQEVAAVGVPSGSSGEAVKIFVVKKDPSLTEESLVTFCRRQLTGYKVPKLVEFRDELPKSNVGKILRRELRDEARGKVDNKA
specific activity [6]: 106 mU/mg protein
